The values that follow come from ChEMBL document CHEMBL1201862, “PubChem BioAssay data set” (2004).

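Growth conditions: 96-well plates. Treatment: test compound, 48 hours, 5 concentrations. Analysis: linear interpolation between bracketing concentrations; unreached endpoints set to highest concentration. The concentration for 50% growth inhibition is given as GI50.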 Calls of active or inactive are those of the source. Rule as the data show it: active = GI50 up to about 1.1 µM and inactive = higher. Some results are limits rather than exact numbers.

Test systems include TK-10; EKVX; SR; SK-MEL-5; HCC 2998; MDA-MB-231; NCI-H460; UO-31; IGROV-1; K562; A498; CCRF-CEM; OVCAR-8; HT-29; LOX IMVI; PC-3; DU-145; OVCAR-3; HOP-62.
Common to all, as to experiment: inhibition of tumour cell growth, NCI panel, 48 h

For the molecule `O=C1CSC2(CC(/C=C/c3ccccc3[N+](=O)[O-])=NN2c2cccc(S(=O)(=O)O)c2)N1c1nc2ccccc2s1` (stereo unspecified), the GI50 is 15.1 µM (inactive) in the experiment with TK-10; 32.3 µM (inactive) in the experiment with EKVX; 20.2 µM (inactive) with SR; 25.4 µM (inactive) with SK-MEL-5; 30.3 µM (inactive) with HCC 2998; 15.9 µM (inactive) in the experiment on MDA-MB-231. Besides, the GI50 in the experiment with NCI-H460 was 17 µM (inactive); with UO-31, 14.2 µM (inactive); in the experiment with IGROV-1, 15.3 µM (inactive); in the experiment on K562 it was 19.5 µM (inactive); in the experiment on A498, 18.2 µM (inactive); in the experiment with CCRF-CEM, 17.9 µM (inactive). The GI50 is 15.3 µM (inactive) with OVCAR-8; 23.8 µM (inactive) with HT-29; 16.4 µM (inactive) in the experiment on LOX IMVI; 15.3 µM (inactive) in the experiment on PC-3; 12.5 µM (inactive) in the experiment on DU-145.

Take `NCCCN(CCCCN(CCCN)CCCc1ccccc1)CCCc1ccccc1`: the GI50 with TK-10 was 12.4 µM (inactive); in the experiment with EKVX, 2.99 µM (inactive); in the experiment on SR it was 2.31 µM (inactive); in the experiment on SK-MEL-5, 1.83 µM (inactive); with HCC 2998, 1.62 µM (inactive); in the experiment on MDA-MB-231, 2.02 µM (inactive). Further, the GI50 in the experiment with OVCAR-3 is 1.73 µM (inactive); with NCI-H460, 1.42 µM (inactive); in the experiment on HOP-62 it was 9.89 µM (inactive); with UO-31, 2.19 µM (inactive); in the experiment on IGROV-1, 2.65 µM (inactive); in the experiment on K562, 1.77 µM (inactive). For the same molecule, the GI50 with A498 is 13.1 µM (inactive); in the experiment with CCRF-CEM, 2.49 µM (inactive); in the experiment with OVCAR-8, 8.71 µM (inactive); in the experiment on HT-29, 1.85 µM (inactive); in the experiment with LOX IMVI it was 2.36 µM (inactive); in the experiment with PC-3 it was 3.22 µM (inactive). Also, in the experiment on DU-145, the GI50 is 8.11 µM (inactive).

In the case of `O=c1[nH]c(=S)[nH]cc1CN1CCOCC1`, the GI50 in the experiment on TK-10, in the experiment on EKVX, in the experiment on SR, in the experiment on SK-MEL-5, in the experiment on HCC 2998 and with MDA-MB-231 was > 100 µM (inactive) each time. In addition, the GI50 in the experiment with OVCAR-3, with NCI-H460, with HOP-62, with UO-31, in the experiment with IGROV-1 and in the experiment with K562 was > 100 µM (inactive) each time. The GI50 in the experiment on A498, in the experiment with CCRF-CEM, in the experiment on OVCAR-8, with HT-29, in the experiment on LOX IMVI and with PC-3 was > 100 µM (inactive) throughout. In the experiment with DU-145, the GI50 is > 100 µM (inactive).

Consider `Cc1nn(C(=O)Cc2ccccc2)c2c1C(c1ccc(O)cc1)SC(=N)N2` (stereo unspecified), for which the GI50 in the experiment on TK-10, in the experiment on EKVX, in the experiment on SR, in the experiment with SK-MEL-5, in the experiment on HCC 2998 and with MDA-MB-231 was > 100 µM (inactive) in each case. Also, the GI50 in the experiment with NCI-H460, in the experiment with HOP-62, with UO-31, in the experiment with IGROV-1, in the experiment with K562 and in the experiment on A498 was > 100 µM (inactive) each time. Also, the GI50 in the experiment on CCRF-CEM, in the experiment with OVCAR-8, in the experiment on HT-29, in the experiment on LOX IMVI, in the experiment with PC-3 and in the experiment on DU-145 was > 100 µM (inactive) each time.

For `O=C1C=C(Nc2ccc(Br)cc2)c2ccccc2/C1=N/O`, the GI50 with TK-10 was 9.1 µM (inactive); in the experiment on EKVX, 35.5 µM (inactive); in the experiment with SR, 9.38 µM (inactive); in the experiment with SK-MEL-5, 0.989 µM (active); in the experiment on HCC 2998, 3.84 µM (inactive); with MDA-MB-231, 9.75 µM (inactive). Moreover, the GI50 was 7.35 µM (inactive) with OVCAR-3; 2.3 µM (inactive) in the experiment with NCI-H460; 2.78 µM (inactive) in the experiment on HOP-62; 6.64 µM (inactive) in the experiment on UO-31; 32.6 µM (inactive) with IGROV-1; 8.71 µM (inactive) in the experiment with K562. Further, the GI50 in the experiment with A498 was 5.81 µM (inactive); in the experiment on CCRF-CEM, 23.6 µM (inactive); in the experiment on OVCAR-8 it was 12.1 µM (inactive); in the experiment with HT-29 it was 12.1 µM (inactive); with LOX IMVI it was 2.18 µM (inactive); in the experiment with PC-3, 8.47 µM (inactive). In the experiment on DU-145, the GI50 was 1.77 µM (inactive).

Regarding `OC(C/C(=N\N=C(/CC(O)(C(F)(F)F)C(F)(F)F)c1ccccc1)c1ccccc1)(C(F)(F)F)C(F)(F)F`, the GI50 in the experiment on TK-10, in the experiment on EKVX, in the experiment with SR, in the experiment on SK-MEL-5, in the experiment on HCC 2998 and in the experiment with MDA-MB-231 was > 10 µM (inactive) throughout. Besides, the GI50 with OVCAR-3, in the experiment with NCI-H460, with HOP-62, in the experiment with IGROV-1, in the experiment with K562 and in the experiment on A498 was > 10 µM (inactive) throughout. Moreover, the GI50 in the experiment on CCRF-CEM, with OVCAR-8, in the experiment on HT-29, with LOX IMVI, with PC-3 and in the experiment on DU-145 was > 10 µM (inactive) throughout.

Take `CCn1c(SCC(=O)NNC(=S)Nc2ccc(Cl)cc2)nc2ccccc2c1=O`: the GI50 is 37.3 µM (inactive) with TK-10; > 100 µM (inactive) in the experiment with EKVX; 43.9 µM (inactive) in the experiment on SR; > 100 µM (inactive) in the experiment with SK-MEL-5; 49 µM (inactive) in the experiment on HCC 2998; > 100 µM (inactive) in the experiment on MDA-MB-231. Besides, the GI50 with OVCAR-3 is 82 µM (inactive); in the experiment on NCI-H460, 49.8 µM (inactive); in the experiment on HOP-62, 79.1 µM (inactive); in the experiment on UO-31, 32 µM (inactive); in the experiment with IGROV-1, > 100 µM (inactive); in the experiment on K562, 30.3 µM (inactive). In addition, the GI50 in the experiment on A498 is 46.9 µM (inactive); in the experiment on CCRF-CEM, 33.1 µM (inactive); with OVCAR-8, 43 µM (inactive); with LOX IMVI it was 30.1 µM (inactive); in the experiment on PC-3, 27.2 µM (inactive); in the experiment on DU-145, 55.6 µM (inactive).

In the case of `CN(C)c1ccc(/C=C2\N=C(NN)NC2=O)cc1`, the GI50 is > 100 µM (inactive) in the experiment on TK-10; 31.9 µM (inactive) in the experiment on EKVX; 23.4 µM (inactive) with SR; 80.9 µM (inactive) with HCC 2998; 59.3 µM (inactive) with MDA-MB-231; 86.3 µM (inactive) in the experiment with OVCAR-3. Further, the GI50 is 69.8 µM (inactive) with NCI-H460; > 100 µM (inactive) in the experiment on HOP-62; 94.6 µM (inactive) in the experiment on UO-31; 75.5 µM (inactive) in the experiment on IGROV-1; 10.1 µM (inactive) in the experiment with K562; 98.2 µM (inactive) with A498. The GI50 in the experiment on CCRF-CEM is 65.8 µM (inactive); in the experiment on OVCAR-8, 55 µM (inactive); in the experiment with HT-29, 31.3 µM (inactive); in the experiment on LOX IMVI it was 35.3 µM (inactive); in the experiment on PC-3, 40.2 µM (inactive); with DU-145, 76.7 µM (inactive).
